Experiments:
BALB/c mice = assay: Acute oral toxicity and haematology analysis in BALB/c mice; conditions: for HCT / HGB / LY / MCH / MCHC / MCV / MO / PLT / RBC / WBC: Balb/c mice
SAPK3 = biological target: T1, SAPK3 (Homo sapiens, UniProt P53778); assay: Eurofins Kinase Profiler panel; assay type: biochemical; conditions: read-out: % inhibition (1μM), DMSO control=100%, lower=stronger
T1 construct: purchased Eurofins KinaseProfiler (Eurofins Pharma Discovery Services UK, Dundee); JAK3 also ChemPartner
Excerpt: (§1) The assay protocol guides are commercially available from ChemPartner.

Flt1 = biological target: T2, Flt1 (Homo sapiens, UniProt P17948); assay: Eurofins Kinase Profiler panel; assay type: biochemical; conditions: read-out: % inhibition (1μM), DMSO control=100%, lower=stronger
T2 construct: purchased Eurofins Pharma Discovery Services UK Limited (Kinase Profiler screening platform)
Excerpt: as §1

CDK7 = biological target: T3, CDK7 (Homo sapiens, UniProt P50613); assay: Eurofins Kinase Profiler panel; assay type: biochemical; conditions: read-out: % inhibition (1μM), DMSO control=100%, lower=stronger
T3 construct: purchased Eurofins KinaseProfiler (Eurofins Pharma Discovery Services UK, Dundee); JAK3 also ChemPartner
Excerpt: as §1

IKKβ = biological target: T4, IKKβ (Homo sapiens, UniProt O14920); assay: Eurofins Kinase Profiler panel; assay type: biochemical; conditions: read-out: % inhibition (1μM), DMSO control=100%, lower=stronger
T4 construct: purchased Eurofins KinaseProfiler (Eurofins Pharma Discovery Services UK, Dundee); JAK3 also ChemPartner

[1] = test system: panel of 81 representative kinases; conditions: 1 μM
GSK3β = biological target: T5, GSK3β (Homo sapiens, UniProt P49841); assay: Eurofins Kinase Profiler panel; assay type: biochemical; conditions: read-out: % inhibition (1μM), DMSO control=100%, lower=stronger
T5 construct: purchased Eurofins KinaseProfiler (Eurofins Pharma Discovery Services UK, Dundee); JAK3 also ChemPartner

BMX = biological target: T6, BMX (Homo sapiens, UniProt P51813); assay: Cys-containing kinase family panel (EurofinsCerep); assay type: biochemical
T6 construct: EurofinsCerep (contract assay service)

ERBB2 = biological target: T7, ERBB2 (Homo sapiens, UniProt P04626); assay: Cys-containing kinase family panel (EurofinsCerep); assay type: biochemical
T7 construct: EurofinsCerep (contract assay service)

GCK = biological target: T8, GCK (Homo sapiens, UniProt Q12851); assay: Eurofins Kinase Profiler panel; assay type: biochemical; conditions: read-out: % inhibition (1μM), DMSO control=100%, lower=stronger
T8 construct: purchased Eurofins Pharma Discovery Services UK Limited (Kinase Profiler screening platform)

[2] = test system: IL-6-induced JAK/STAT3 phosphorylation in TF-1 cells (JAK1); assay: STAT3 phosphorylation induced by IL-6 in TF-1 cells, Western blot
JNK1α1 = biological target: T9, JNK1α1 (Homo sapiens, UniProt P45983); assay: Eurofins Kinase Profiler panel; assay type: biochemical; conditions: read-out: % inhibition (1μM), DMSO control=100%, lower=stronger
T9 construct: purchased Eurofins KinaseProfiler (Eurofins Pharma Discovery Services UK, Dundee); JAK3 also ChemPartner

Lck = biological target: T10, Lck (Homo sapiens, UniProt P06239); assay: Eurofins Kinase Profiler panel; assay type: biochemical; conditions: read-out: % inhibition (1μM), DMSO control=100%, lower=stronger
T10 construct: purchased Eurofins KinaseProfiler (Eurofins Pharma Discovery Services UK, Dundee); JAK3 also ChemPartner

JAK3 = biological target: T11, JAK3 (Homo sapiens, UniProt P52333); assay: Reversibility assay (jump dilution); assay type: biochemical; conditions: jump dilution experiment
T11 construct: ChemPartner (contract assay service)
T11 sequence (P52333 1-1124): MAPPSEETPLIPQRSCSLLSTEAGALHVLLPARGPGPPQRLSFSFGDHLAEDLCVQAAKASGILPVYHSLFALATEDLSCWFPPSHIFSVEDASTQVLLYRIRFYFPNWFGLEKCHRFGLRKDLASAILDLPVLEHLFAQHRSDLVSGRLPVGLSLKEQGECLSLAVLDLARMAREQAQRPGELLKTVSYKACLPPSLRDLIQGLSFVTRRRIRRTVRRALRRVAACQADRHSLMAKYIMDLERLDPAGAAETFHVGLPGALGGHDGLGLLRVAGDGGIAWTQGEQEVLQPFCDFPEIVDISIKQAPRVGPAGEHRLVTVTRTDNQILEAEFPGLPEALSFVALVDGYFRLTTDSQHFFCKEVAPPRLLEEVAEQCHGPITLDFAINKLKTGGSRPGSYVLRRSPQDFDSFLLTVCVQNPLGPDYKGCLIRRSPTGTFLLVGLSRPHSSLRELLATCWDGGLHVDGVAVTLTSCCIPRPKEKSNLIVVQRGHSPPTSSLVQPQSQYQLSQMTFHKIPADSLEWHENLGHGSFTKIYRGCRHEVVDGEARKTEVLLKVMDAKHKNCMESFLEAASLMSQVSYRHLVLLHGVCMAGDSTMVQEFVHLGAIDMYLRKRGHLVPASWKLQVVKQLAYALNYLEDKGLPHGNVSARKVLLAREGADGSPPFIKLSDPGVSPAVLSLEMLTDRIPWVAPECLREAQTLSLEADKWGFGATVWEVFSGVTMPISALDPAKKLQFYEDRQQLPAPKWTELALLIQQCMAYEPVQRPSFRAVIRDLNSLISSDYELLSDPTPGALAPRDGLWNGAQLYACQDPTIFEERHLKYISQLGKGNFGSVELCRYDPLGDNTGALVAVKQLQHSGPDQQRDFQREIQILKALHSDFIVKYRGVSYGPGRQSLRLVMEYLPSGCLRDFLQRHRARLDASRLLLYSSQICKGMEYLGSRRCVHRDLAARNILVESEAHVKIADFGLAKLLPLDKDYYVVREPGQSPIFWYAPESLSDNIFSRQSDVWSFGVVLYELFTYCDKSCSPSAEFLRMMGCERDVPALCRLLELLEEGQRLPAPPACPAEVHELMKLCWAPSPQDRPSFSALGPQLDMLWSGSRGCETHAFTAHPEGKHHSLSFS
Method: This test trial of our compound RB1 was performed on a ChemPartner reversibility assay platform (ChemPartner; Shanghai; China). Jump dilution analysis is commonly used. The compound was tested in duplicate under 2 conditions, preincubation with enzyme and no preincubation. The assay protocol guide is commercially available from ChemPartner.
Supplementary Figure S5. […] RB1 with […]
with kinase buffer that contains peptide substrate, ATP and cofactors at the final concentration for reaction, and read conversion data for 20 times for 1 h on caliper.
(1 picture or pasted object on this page, not shown here)

T6 sequence (P51813 whole entry): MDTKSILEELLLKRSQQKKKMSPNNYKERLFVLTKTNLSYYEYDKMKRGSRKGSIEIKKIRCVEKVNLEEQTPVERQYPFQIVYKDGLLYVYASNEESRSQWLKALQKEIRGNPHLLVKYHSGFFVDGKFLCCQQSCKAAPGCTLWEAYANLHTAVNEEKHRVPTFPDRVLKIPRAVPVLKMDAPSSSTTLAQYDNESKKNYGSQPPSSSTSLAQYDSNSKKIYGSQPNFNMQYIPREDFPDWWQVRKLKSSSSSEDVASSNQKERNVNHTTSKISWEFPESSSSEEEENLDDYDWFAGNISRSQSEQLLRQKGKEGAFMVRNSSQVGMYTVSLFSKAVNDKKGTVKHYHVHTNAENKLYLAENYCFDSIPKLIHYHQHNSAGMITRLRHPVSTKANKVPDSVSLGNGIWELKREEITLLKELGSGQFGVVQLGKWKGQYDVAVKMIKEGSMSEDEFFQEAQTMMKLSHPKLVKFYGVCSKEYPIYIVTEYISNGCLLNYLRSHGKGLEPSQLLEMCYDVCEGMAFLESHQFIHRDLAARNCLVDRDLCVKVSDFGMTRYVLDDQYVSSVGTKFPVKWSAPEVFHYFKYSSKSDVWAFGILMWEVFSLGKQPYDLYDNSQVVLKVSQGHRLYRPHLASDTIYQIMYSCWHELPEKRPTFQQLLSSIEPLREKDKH
T4 sequence (O14920 whole entry): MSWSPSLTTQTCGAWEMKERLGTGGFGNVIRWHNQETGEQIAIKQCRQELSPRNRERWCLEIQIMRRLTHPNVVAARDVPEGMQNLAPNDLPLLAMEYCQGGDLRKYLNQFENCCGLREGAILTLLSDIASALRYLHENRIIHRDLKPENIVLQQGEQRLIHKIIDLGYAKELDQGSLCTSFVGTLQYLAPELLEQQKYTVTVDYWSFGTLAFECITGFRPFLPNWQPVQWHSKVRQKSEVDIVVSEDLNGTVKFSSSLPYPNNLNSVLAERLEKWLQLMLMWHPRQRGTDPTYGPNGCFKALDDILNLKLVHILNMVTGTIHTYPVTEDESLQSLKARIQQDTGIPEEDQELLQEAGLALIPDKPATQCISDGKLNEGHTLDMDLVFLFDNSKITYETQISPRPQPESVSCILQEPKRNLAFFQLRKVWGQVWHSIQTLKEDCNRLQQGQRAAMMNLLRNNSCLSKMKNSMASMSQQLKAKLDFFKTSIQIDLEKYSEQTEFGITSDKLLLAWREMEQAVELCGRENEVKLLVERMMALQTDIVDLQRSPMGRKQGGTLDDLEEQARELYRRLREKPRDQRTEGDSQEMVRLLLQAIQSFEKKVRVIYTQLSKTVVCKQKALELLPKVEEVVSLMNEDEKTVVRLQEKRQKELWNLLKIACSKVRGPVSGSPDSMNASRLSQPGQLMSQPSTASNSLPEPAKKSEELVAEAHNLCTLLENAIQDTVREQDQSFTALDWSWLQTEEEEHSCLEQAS
T7 sequence (P04626 23-1255): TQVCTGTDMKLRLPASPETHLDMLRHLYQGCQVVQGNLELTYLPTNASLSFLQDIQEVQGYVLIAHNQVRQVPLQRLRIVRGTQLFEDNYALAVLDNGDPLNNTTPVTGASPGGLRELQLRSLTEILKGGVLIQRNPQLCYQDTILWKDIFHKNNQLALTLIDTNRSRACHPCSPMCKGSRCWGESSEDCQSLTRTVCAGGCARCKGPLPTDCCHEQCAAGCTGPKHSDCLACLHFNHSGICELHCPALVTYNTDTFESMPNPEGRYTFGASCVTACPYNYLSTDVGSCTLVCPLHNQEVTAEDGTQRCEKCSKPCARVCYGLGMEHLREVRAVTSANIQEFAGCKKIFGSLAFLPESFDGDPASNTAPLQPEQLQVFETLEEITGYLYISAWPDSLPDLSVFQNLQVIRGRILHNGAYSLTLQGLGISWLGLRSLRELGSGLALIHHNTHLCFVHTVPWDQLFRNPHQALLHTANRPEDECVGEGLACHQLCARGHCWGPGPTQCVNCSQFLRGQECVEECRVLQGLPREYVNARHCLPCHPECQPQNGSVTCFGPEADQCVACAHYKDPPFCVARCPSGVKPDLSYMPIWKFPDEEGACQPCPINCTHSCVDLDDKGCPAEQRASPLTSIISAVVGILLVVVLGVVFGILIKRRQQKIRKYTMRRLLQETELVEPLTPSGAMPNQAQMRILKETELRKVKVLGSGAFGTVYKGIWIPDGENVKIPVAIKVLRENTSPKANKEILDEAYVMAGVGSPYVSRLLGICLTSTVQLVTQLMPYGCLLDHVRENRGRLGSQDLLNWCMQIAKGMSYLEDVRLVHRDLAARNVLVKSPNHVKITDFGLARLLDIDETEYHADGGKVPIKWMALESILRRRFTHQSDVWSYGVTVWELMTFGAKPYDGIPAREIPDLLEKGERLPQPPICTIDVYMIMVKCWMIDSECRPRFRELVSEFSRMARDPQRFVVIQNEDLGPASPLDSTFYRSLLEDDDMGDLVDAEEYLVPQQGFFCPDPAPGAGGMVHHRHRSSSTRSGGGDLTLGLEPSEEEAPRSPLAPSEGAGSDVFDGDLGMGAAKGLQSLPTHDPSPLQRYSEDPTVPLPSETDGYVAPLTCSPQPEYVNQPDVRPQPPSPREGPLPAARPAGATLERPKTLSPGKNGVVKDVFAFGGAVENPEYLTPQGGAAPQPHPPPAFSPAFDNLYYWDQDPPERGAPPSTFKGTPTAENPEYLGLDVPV
T10 sequence (P06239 whole entry): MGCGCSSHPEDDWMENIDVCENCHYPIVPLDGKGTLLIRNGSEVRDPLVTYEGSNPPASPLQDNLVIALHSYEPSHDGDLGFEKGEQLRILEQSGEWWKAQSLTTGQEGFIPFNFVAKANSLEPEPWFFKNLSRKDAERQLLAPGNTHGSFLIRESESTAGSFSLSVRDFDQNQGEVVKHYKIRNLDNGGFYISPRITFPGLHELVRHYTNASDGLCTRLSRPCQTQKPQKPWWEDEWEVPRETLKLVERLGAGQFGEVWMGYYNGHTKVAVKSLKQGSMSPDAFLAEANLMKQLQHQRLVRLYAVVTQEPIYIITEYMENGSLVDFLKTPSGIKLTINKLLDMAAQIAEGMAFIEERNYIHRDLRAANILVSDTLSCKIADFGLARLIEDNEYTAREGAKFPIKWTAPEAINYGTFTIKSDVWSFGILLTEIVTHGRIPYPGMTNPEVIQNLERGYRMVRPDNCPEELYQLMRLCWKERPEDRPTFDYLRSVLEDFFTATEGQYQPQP
T8 sequence (Q12851 whole entry): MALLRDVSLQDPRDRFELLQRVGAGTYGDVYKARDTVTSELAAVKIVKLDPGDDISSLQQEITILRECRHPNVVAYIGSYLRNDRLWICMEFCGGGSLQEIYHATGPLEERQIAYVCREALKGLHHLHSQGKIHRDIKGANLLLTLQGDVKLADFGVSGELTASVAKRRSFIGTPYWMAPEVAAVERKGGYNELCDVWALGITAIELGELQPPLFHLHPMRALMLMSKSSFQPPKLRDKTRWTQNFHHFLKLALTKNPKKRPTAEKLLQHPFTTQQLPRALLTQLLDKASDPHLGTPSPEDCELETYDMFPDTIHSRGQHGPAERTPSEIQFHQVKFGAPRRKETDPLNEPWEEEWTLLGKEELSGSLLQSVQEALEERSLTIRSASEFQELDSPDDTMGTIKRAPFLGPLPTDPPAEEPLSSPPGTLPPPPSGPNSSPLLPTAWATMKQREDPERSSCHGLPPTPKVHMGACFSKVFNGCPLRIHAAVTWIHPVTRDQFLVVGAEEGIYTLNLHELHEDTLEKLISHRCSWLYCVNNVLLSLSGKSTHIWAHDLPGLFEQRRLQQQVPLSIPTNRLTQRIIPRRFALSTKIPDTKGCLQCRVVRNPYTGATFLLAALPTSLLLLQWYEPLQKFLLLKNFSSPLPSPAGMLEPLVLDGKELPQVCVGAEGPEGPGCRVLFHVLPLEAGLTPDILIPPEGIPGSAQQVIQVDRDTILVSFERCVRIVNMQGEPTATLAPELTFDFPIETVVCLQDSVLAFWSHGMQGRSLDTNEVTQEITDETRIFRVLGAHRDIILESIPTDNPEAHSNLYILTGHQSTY
T9 sequence (P45983 1-384 isoform P45983-2): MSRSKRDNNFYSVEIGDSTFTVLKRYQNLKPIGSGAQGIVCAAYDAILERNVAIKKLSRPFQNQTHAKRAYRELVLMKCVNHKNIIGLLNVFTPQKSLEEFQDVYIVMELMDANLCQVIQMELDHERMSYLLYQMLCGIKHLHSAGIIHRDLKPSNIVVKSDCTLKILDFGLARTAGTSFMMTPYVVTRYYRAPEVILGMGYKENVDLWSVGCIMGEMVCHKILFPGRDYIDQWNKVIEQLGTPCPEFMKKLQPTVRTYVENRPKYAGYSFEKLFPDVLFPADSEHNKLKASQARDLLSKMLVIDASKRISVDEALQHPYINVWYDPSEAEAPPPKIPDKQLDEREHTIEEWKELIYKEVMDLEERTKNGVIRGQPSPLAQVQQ
T1 sequence (P53778 whole entry): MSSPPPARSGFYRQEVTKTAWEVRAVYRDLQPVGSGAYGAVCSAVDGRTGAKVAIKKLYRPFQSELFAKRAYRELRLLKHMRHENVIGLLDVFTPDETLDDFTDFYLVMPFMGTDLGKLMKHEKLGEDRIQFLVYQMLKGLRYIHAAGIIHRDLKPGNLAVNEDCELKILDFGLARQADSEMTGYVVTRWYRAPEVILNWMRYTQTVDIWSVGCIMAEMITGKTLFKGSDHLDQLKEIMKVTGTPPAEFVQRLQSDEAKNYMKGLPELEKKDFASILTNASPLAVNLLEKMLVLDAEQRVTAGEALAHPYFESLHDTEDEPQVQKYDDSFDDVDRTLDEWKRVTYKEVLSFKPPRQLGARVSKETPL

Question: For `C=CC(=O)N[C@@H]1CCCN(c2ncnc3[nH]ccc23)C1` [RB1], which “acute haematological toxicity in WBC and lymphocyte counts” value (BALB/c mice; BALB/c mice, oral, even at 1000 mg/kg, after 14 days) is on record?
Answer: did not induce significant acute haematological toxicity

Question: What about the “acute oral toxicity, adverse effects” value (BALB/c mice; BALB/c mice, single doses, 14-days recovery time) of the same compound?
Answer: no obvious adverse results

Question: What about the HCT (BALB/c mice; oral 100 mg/kg) of the same compound?
Answer: 46.94 ± 1.80%

Question: What about the HGB (BALB/c mice; oral 100 mg/kg) of the same compound?
Answer: 168.12 ± 7.36 g/L

Question: What about the LY (BALB/c mice; oral 100 mg/kg) of the same compound?
Answer: 65.93 ± 3.09%

Question: What about the MCH (BALB/c mice; oral 100 mg/kg) of the same compound?
Answer: 16.13 ± 0.12 pg

Question: What about the MCHC (BALB/c mice; oral 100 mg/kg) of the same compound?
Answer: 369.77 ± 2.01 g/L

Question: What about the MCV (BALB/c mice; oral 100 mg/kg) of the same compound?
Answer: 48.98 ± 0.22 fL

Question: What about the MO (BALB/c mice; oral 100 mg/kg) of the same compound?
Answer: 6.99 ± 1.26%

Question: What about the PLT (BALB/c mice; oral 100 mg/kg) of the same compound?
Answer: 385.34 ± 43.61 1×109/L

Question: What about the RBC (BALB/c mice; oral 100 mg/kg) of the same compound?
Answer: 9.20 ± 0.31 1×1012/L

Question: And the WBC (BALB/c mice; oral 100 mg/kg)?
Answer: 9.12 ± 0.98 1×109/L

Question: What about the HCT (BALB/c mice; oral 300 mg/kg) of the same compound?
Answer: 44.82 ± 1.77%

Question: What about the HGB (BALB/c mice; oral 300 mg/kg) of the same compound?
Answer: 158.49 ± 6.40 g/L

Question: And the LY (BALB/c mice; oral 300 mg/kg)?
Answer: 75.04 ± 3.17%

Question: And the MCH (BALB/c mice; oral 300 mg/kg)?
Answer: 15.98 ± 0.22 pg

Question: And the MCHC (BALB/c mice; oral 300 mg/kg)?
Answer: 360.54 ± 3.84 g/L

Question: What about the MCV (BALB/c mice; oral 300 mg/kg) of the same compound?
Answer: 50.03 ± 0.08 fL

Question: What about the MO (BALB/c mice; oral 300 mg/kg) of the same compound?
Answer: 6.50 ± 0.86%

Question: And the PLT (BALB/c mice; oral 300 mg/kg)?
Answer: 360.12 ± 33.74 1×109/L

Question: And the RBC (BALB/c mice; oral 300 mg/kg)?
Answer: 9.90 ± 0.22 1×1012/L

Question: And the WBC (BALB/c mice; oral 300 mg/kg)?
Answer: 8.64 ± 1.05 1×109/L

Question: And the HCT (BALB/c mice; oral 1000 mg/kg)?
Answer: 43.53 ± 1.68%

Question: And the HGB (BALB/c mice; oral 1000 mg/kg)?
Answer: 150.33 ± 6.94 g/L

Question: And the LY (BALB/c mice; oral 1000 mg/kg)?
Answer: 69.43 ± 1.88%

Question: What about the MCH (BALB/c mice; oral 1000 mg/kg) of the same compound?
Answer: 16.08 ± 0.09 pg

Question: And the MCHC (BALB/c mice; oral 1000 mg/kg)?
Answer: 355.00 ± 2.16 g/L

Question: And the MCV (BALB/c mice; oral 1000 mg/kg)?
Answer: 49.82 ± 0.12 fL

Question: What about the MO (BALB/c mice; oral 1000 mg/kg) of the same compound?
Answer: 8.23 ± 1.08%

Question: And the PLT (BALB/c mice; oral 1000 mg/kg)?
Answer: 327.67 ± 46.45 1×109/L

Question: What about the RBC (BALB/c mice; oral 1000 mg/kg) of the same compound?
Answer: 10.44 ± 0.16 1×1012/L

Question: And the WBC (BALB/c mice; oral 1000 mg/kg)?
Answer: 9.33 ± 1.12 1×109/L

Question: What about the activity at 1 µM (SAPK3) of the same compound?
Answer: 94%

Question: What about the activity at 1 µM (Flt1) of the same compound?
Answer: 93%

Question: And the activity at 1 µM (CDK7)?
Answer: 95%

Question: What about the activity at 1 µM (IKKβ) of the same compound?
Answer: 105%

Question: And the “selectivity score S(1)” value ([1]; kinases with ctrl% < 1% / kinases tested)?
Answer: 0.012

Question: And the “selectivity score S(10)” value ([1]; kinases with ctrl% < 10% / kinases tested)?
Answer: 0.012

Question: And the “selectivity score S(35)” value ([1]; kinases with ctrl% < 35% / kinases tested)?
Answer: 0.086

Question: What about the activity at 1 µM (GSK3β) of the same compound?
Answer: 114%

Question: And the inhibition at 1 µM (BMX)?
Answer: 4%

Question: What about the inhibition at 1 µM (ERBB2) of the same compound?
Answer: 2.85%

Question: What about the activity at 1 µM (GCK) of the same compound?
Answer: 80%

Question: What about the IC50 ([2]; Homo sapiens, TF-1, read-out: IC50, STAT and JAK phosphorylation) of the same compound?
Answer: > 50 µM

Question: What about the “Selectivity JAK1/JAK3” value ([2]; TF-1, IL-6, pSTAT3) of the same compound?
Answer: > 1000

Question: What about the activity at 1 µM (JNK1α1) of the same compound?
Answer: 101%

Question: What about the activity at 1 µM (Lck) of the same compound?
Answer: 80%

Question: What about the “active JAK3 over time after preincubation” value (JAK3) of the same compound?
Answer: no active JAK3 was detected

Source: PMC5869712 (Scientific Reports, 2018)
